Experimental data from patent publication US7232837B2, “Stereoisomers with high affinity for adrenergic receptors” (McNeil-PPC, Inc., priority 1999, dated 2007).

Tests used:
Swiss-Webster mice [1] = assay: H1 receptor antagonist (triprolidine) interaction study, locomotor activity in mice; details: mice pretreated with triprolidine 20 min before the test compound
Experimental: H1 receptor antagonist interaction studies. […] The mice were immediately placed in the activity testing chamber for a 2-h session. Doses of the test compound were selected from the ascending or descending time of the dose-effect curve determined from the compound-alone studies. Eight mice were tested for each triprolidine/test compound combination.
Statistical analysis. Time course data for each compound were considered in 2-way analyses of variance with dose as a between-group and time as a within-group factor. The dose-effect data were considered in 1-way analyses of variance, and planned individual comparisons were conduced between each dose and the saline control group. Interaction studies were considered in 2-way analyses of variance, with Pretreatment and Test dose as the factors.

[2] = tested on: New Zealand white rabbits; assay: Intraocular pressure (IOP) after topical application to the rabbit eye; format: in vivo; details: for IOP: mean ± S.E.
Experimental: (§1) These diastereomers were administered topically as either 1% or 2% solutions in buffered saline. Pupillary diameter and IOP were measured in all animals over a six hour time period during the day to minimize diurnal variations in IOP and pupil diameter.
(§2) The experiments were performed on adult male New Zealand white rabbits weighing 3.0–6.0 kg. All rabbits were caged individually and maintained on a 12 hr/12 hr light/dark schedule with free access to food and water. All animal procedures were in conformity with the ARVO Resolution on the Use and Care of Animals in Research. All treated rabbits had served as controls by having received a saline treatment on a different day.
(§3) Only one eye received drug treatment. The contralateral eye served as a control. Saline (or PBS) and drug treated rabbits were treated and observed simultaneously. A single dose was given at time zero and IOP and pupil diameter measured at −1.0, −0.5, 0.5, 1, 3 and 5 hrs post-treatment.
IOP measurements were recorded with an Alcon Applanation Pneumotonograph (Surgical Products Division, Alcon Laboratories, Inc., Ft. Worth, Tex.) in rabbits placed in Lucite restraining cages. Initial topical application of a two drop 0.5% proparacaine HCl (Ophthetic®, Allergan Pharmaceuticals, Inc.) was performed on each rabbit.
(§4) Mean and Standard Error values were used to construct time-response and dose-response curves for the treated and contralateral eye of research rabbits. The data were analyzed statistically by an analysis of variance and a Bonferoni's test for significance. P<0.05 was the accepted level of significance.

Swiss-Webster mice [3] = assay: Locomotor stimulant and depressant effects in mice; details: i.p.
[4] = tested on: New Zealand white rabbits; assay: Pupil diameter / mydriasis after topical application to the rabbit eye; format: in vivo; details: for Pupil Diameter: mean ± S.E.
Experimental: as §1, §2, §3
Pupil diameter was measured visually at the point of the greatest horizontal diameter with a transparent millimeter ruler. All measurements were made under the identical ambient lighting conditions.
as §4

[5] = 1% topical, drug treated eye (T), 0.5 hr
[6] = 1% topical, drug treated eye (T), 1 hr
[7] = 1% topical, drug treated eye (T), 3 hr
[8] = 1% topical, drug treated eye (T), 5 hr
[9] = 1% topical, drug treated eye (T), −0.5 hr (pre-treatment)
[10] = 1% topical, drug treated eye (T), −1 hr (pre-treatment)
[11] = 1% topical, untreated contralateral eye (U), 0.5 hr
[12] = 1% topical, untreated contralateral eye (U), 1 hr
[13] = 1% topical, untreated contralateral eye (U), 3 hr
[14] = 1% topical, untreated contralateral eye (U), 5 hr
[15] = 1% topical, untreated contralateral eye (U), −0.5 hr (pre-treatment)
[16] = 1% topical, untreated contralateral eye (U), −1 hr (pre-treatment)
[17] = 2% topical, drug treated eye (T), 0.5 hr
[18] = 2% topical, drug treated eye (T), 1 hr
[19] = 2% topical, drug treated eye (T), 3 hr
[20] = 2% topical, drug treated eye (T), 5 hr
[21] = 2% topical, drug treated eye (T), −0.5 hr (pre-treatment)
[22] = 2% topical, drug treated eye (T), −1 hr (pre-treatment)
[23] = 2% topical, untreated contralateral eye (U), 0.5 hr
[24] = 2% topical, untreated contralateral eye (U), 1 hr
[25] = 2% topical, untreated contralateral eye (U), 3 hr
[26] = 2% topical, untreated contralateral eye (U), 5 hr
[27] = 2% topical, untreated contralateral eye (U), −0.5 hr (pre-treatment)
[28] = 2% topical, untreated contralateral eye (U), −1 hr (pre-treatment)
[29] = — denotes absence of significant effect

## CNC[C@@H](O)c1cccc(O)c1 [(+)-Phenylephrine, (+)-phenylephrine]
Swiss-Webster mice [1]
  effect of triprolidine pretreatment on stimulant or depressant effects: failed to show significant modification of stimulant or depressant effects
[2]; [5]
  IOP: 16 ± 1.5 mmHg
[2]; [6]
  IOP: 16 ± 0.7 mmHg
[2]; [7]
  IOP: 15 ± 0.5 mmHg
[2]; [8]
  IOP: 16 ± 1.0 mmHg
[2]; [9]
  IOP: 18 ± 2.1 mmHg
[2]; [10]
  IOP: 19 ± 1.8 mmHg
[2]; [11]
  IOP: 19 ± 1.8 mmHg
[2]; [12]
  IOP: 17 ± 1.1 mmHg
[2]; [13]
  IOP: 16 ± 1.0 mmHg
[2]; [14]
  IOP: 17 ± 1.7 mmHg
[2]; [15]
  IOP: 19 ± 2.0 mmHg
[2]; [16]
  IOP: 21 ± 2.0 mmHg
[2]; [17]
  IOP: 20 ± 1.7 mmHg
[2]; [18]
  IOP: 19 ± 1.8 mmHg
[2]; [19]
  IOP: 19 ± 2.2 mmHg
[2]; [20]
  IOP: 16 ± 2.4 mmHg
[2]; [21]
  IOP: 19 ± 0.8 mmHg
[2]; [22]
  IOP: 19 ± 0.9 mmHg
[2]; [23]
  IOP: 21 ± 1.7 mmHg
[2]; [24]
  IOP: 22 ± 2.2 mmHg
[2]; [25]
  IOP: 20 ± 1.8 mmHg
[2]; [26]
  IOP: 18 ± 1.9 mmHg
[2]; [27]
  IOP: 19 ± 2.2 mmHg
[2]; [28]
  IOP: 19 ± 1.6 mmHg
Swiss-Webster mice [3]
  Depression Time: 30-min period following injection in which the maximal depression occurred: 0 to 30 min
  Stimulation Time: 30-min period following injection in which the maximal stimulant effect occurred: 60 to 90 min
  locomotor depressant effects, time course (result in words): dose-dependent locomotor depression within 10 to 20 minutes following injection
Swiss-Webster mice [3]; [29]
  Depression Potency: dose resulting in ½ the maximal depressant effect (ID50): 53.3 mg/kg
[4]; [5]
  Pupil Diameter: 6 ± 0.2 mm
[4]; [6]
  Pupil Diameter: 9 ± 0.2 mm
[4]; [7]
  Pupil Diameter: 9 ± 0.2 mm
[4]; [8]
  Pupil Diameter: 9 ± 0.2 mm
[4]; [9]
  Pupil Diameter: 5 ± 0.2 mm
[4]; [10]
  Pupil Diameter: 5 ± 0.2 mm
[4]; [11]
  Pupil Diameter: 6 ± 0.2 mm
[4]; [12]
  Pupil Diameter: 9 ± 0.2 mm
[4]; [13]
  Pupil Diameter: 9 ± 0.2 mm
[4]; [14]
  Pupil Diameter: 9 ± 0.2 mm
[4]; [15]
  Pupil Diameter: 5 ± 0.2 mm
[4]; [16]
  Pupil Diameter: 5 ± 0.2 mm
[4]; [17]
  Pupil Diameter: 6 ± 0.2 mm
[4]; [18]
  Pupil Diameter: 9 ± 0.2 mm
[4]; [19]
  Pupil Diameter: 9 ± 0.2 mm
[4]; [20]
  Pupil Diameter: 9 ± 0.2 mm
[4]; [21]
  Pupil Diameter: 5 ± 0.2 mm
[4]; [22]
  Pupil Diameter: 5 ± 0.2 mm
[4]; [23]
  Pupil Diameter: 6 ± 0.2 mm
[4]; [24]
  Pupil Diameter: 9 ± 0.2 mm
[4]; [25]
  Pupil Diameter: 9 ± 0.2 mm
[4]; [26]
  Pupil Diameter: 9 ± 0.2 mm
[4]; [27]
  Pupil Diameter: 5 ± 0.2 mm
[4]; [28]
  Pupil Diameter: 5 ± 0.2 mm

## (+)-norpseudoephedrine
Swiss-Webster mice [1]
  effect of triprolidine pretreatment on stimulant or depressant effects: failed to show significant modification of stimulant or depressant effects
[2]; 1% or 2% topical, rabbit
  effect on IOP (result in words): accompanying increase in IOP
[2]; [5]
  IOP: 19 ± 2.4 mmHg
[2]; [6]
  IOP: 18 ± 1.8 mmHg
[2]; [7]
  IOP: 18 ± 2.0 mmHg
[2]; [8]
  IOP: 17 ± 2.8 mmHg
[2]; [10]
  IOP: 18 ± 1.0 mmHg
[2]; [11]
  IOP: 24 ± 1.8 mmHg
[2]; [12]
  IOP: 19 ± 1.8 mmHg
[2]; [13]
  IOP: 18 ± 2.8 mmHg
[2]; [14]
  IOP: 17 ± 2.8 mmHg
[2]; [16]
  IOP: 20 ± 1.7 mmHg
[2]; [17]
  IOP: 18 ± 2.5 mmHg
[2]; [18]
  IOP: 20 ± 2.3 mmHg
[2]; [19]
  IOP: 20 ± 2.0 mmHg
[2]; [20]
  IOP: 21 ± 2.8 mmHg
[2]; [21]
  IOP: 16 ± 2.5 mmHg
[2]; [22]
  IOP: 19 ± 2.4 mmHg
[2]; [23]
  IOP: 22 ± 2.0 mmHg
[2]; [24]
  IOP: 23 ± 2.1 mmHg
[2]; [25]
  IOP: 22 ± 2.7 mmHg
[2]; [26]
  IOP: 24 ± 2.3 mmHg
[2]; [27]
  IOP: 19 ± 2.5 mmHg
[2]; [28]
  IOP: 18 ± 2.6 mmHg
Swiss-Webster mice [3]
  Depression Time: 30-min period following injection in which the maximal depression occurred: 10 to 40 min
  Stimulation Time: 30-min period following injection in which the maximal stimulant effect occurred: 30 to 60 min
Swiss-Webster mice [3]; [29]
  Stimulation Potency: dose resulting in ½ the maximal stimulant effect (ID50): 12.2 mg/kg
[4]; 1% or 2% topical, rabbit
  mydriasis / pupil diameter (result in words): significant mydriasis
[4]; 1% topical
  Mydriatic Responses, TREATED EYE: ++ (++ = 2–4 mm change)
  Mydriatic Responses, UNTREATED EYE: + (+ = 0–2 mm change)
[4]; [5]
  Pupil Diameter: 8 ± 0.2 mm
[4]; [6]
  Pupil Diameter: 8 ± 0.2 mm
[4]; [7]
  Pupil Diameter: 8 ± 0.2 mm
[4]; [8]
  Pupil Diameter: 8 ± 0.2 mm
[4]; [9]
  Pupil Diameter: 6 ± 0.2 mm
[4]; [10]
  Pupil Diameter: 6 ± 0.2 mm
[4]; [11]
  Pupil Diameter: 8 ± 0.2 mm
[4]; [12]
  Pupil Diameter: 8 ± 0.2 mm
[4]; [13]
  Pupil Diameter: 8 ± 0.2 mm
[4]; [14]
  Pupil Diameter: 8 ± 0.2 mm
[4]; [15]
  Pupil Diameter: 6 ± 0.2 mm
[4]; [16]
  Pupil Diameter: 6 ± 0.2 mm
[4]; 2% topical
  Mydriatic Responses, TREATED EYE: ++ (++ = 2–4 mm change)
  Mydriatic Responses, UNTREATED EYE: ++ (++ = 2–4 mm change)
[4]; [17]
  Pupil Diameter: 9 ± 0.2 mm
[4]; [18]
  Pupil Diameter: 9 ± 0.2 mm
[4]; [19]
  Pupil Diameter: 9 ± 0.2 mm
[4]; [20]
  Pupil Diameter: 9 ± 0.2 mm
[4]; [21]
  Pupil Diameter: 6 ± 0.2 mm
[4]; [22]
  Pupil Diameter: 6 ± 0.2 mm
[4]; [23]
  Pupil Diameter: 9 ± 0.2 mm
[4]; [24]
  Pupil Diameter: 9 ± 0.2 mm
[4]; [25]
  Pupil Diameter: 9 ± 0.2 mm
[4]; [26]
  Pupil Diameter: 9 ± 0.2 mm
[4]; [27]
  Pupil Diameter: 6 ± 0.2 mm
[4]; [28]
  Pupil Diameter: 6 ± 0.2 mm
